Experimental data published in PMC6930573, “Discovery of Selective Butyrylcholinesterase (BChE) Inhibitors through a Combination of Computational Studies and Biological Evaluations” (Molecules, 2019).
Where “and” joins values, the source holds several entries; their conditions need not be identical. Identical values can stand only once.

What was measured:
BChE (from human serum) = target: T1, BChE (from human serum) (Homo sapiens, UniProt P06276); test: biochemical; assay type: biochemical; conditions: for BChE IR (inhibition ratio): at 10 μM; for BChE IR (inhibition ratio) / IC50: mean ± SEM of three experiments
T1 construct: BChE (from human serum, B4186); purchased Sigma-Aldrich B4186; host or cells: human serum
Method: (§1) Modified Ellman’s assay was performed to measure the inhibitory effects of purchased compounds on ChEs using a Thermo Fisher Scientific spectrophotometer. AChE (from human erythrocytes, C0663), BChE (from human serum, B4186), 5,5-dithiobis-(2-nitrobenzoic acid) (DTNB, D218200), acetylthiocholine iodide (ATC, A5751), and butyrylthiocholine iodide (BTC, B3253) were purchased from Sigma-Aldrich (St. Louis, MO, USA).
(§2) For measurement, a cuvette containing 30 μL of phosphate buffer, 10 μL of AChE (2.5 units/mL) or BChE (2.5 units/mL), and 10 μL of the test compound solution was allowed to stand for 5 min before 10 μL of DTNB was added. After the addition of 20 μL of ATC or BTC, the reaction was initiated and the solution was mixed immediately. […] 10 μL of phosphate-buffered solution replaced the enzyme solution were used to determine the blank value. All the measurements were done in triplicate. The inhibition curve was drawn by plotting the percentage enzyme activity (100% for the reference) versus the logarithm of the test compound concentration. The IC50 values were calculated by GraphPad Prism 6 (GraphPad Software, San Diego, CA, USA), and the data were shown as mean ± standard error of mean (SEM).

[1] = target: T2, AChE (from human erythrocytes) (Homo sapiens, UniProt P22303); test: biochemical; assay type: biochemical; conditions: mean ± SEM of three experiments; for AChE IR (inhibition ratio): at 10 μM
T2 construct: AChE (from human erythrocytes, C0663); purchased Sigma-Aldrich C0663; host or cells: human erythrocytes
Method: as §1, §2

hAChE = test system: hAChE; design: method as in earlier work; conditions: Figure 1; ref 22 (1), 23 (2); cited from earlier work
hBChE = conditions: read-out: IC50 (hBChE); Figure 1; ref 22 (1), 23 (2), 24 (3), 25 (4); cited from earlier work
SH-SY5Y cells = test: MTT cell viability assay; assay type: cell-based; conditions: 10 μM and 50 μM, 24 h
Method: The human neuroblastoma SH-SY5Y cells (3 × 10^3, DMEM medium supplemented with 10% fetal bovine serum, volume 0.1 mL) were placed in a 96-well flat-bottomed plate, in a humidified atmosphere of 95% air and 5% CO2 at 37 °C and grown to 80% confluence. Before cell treatment, the complete medium was replaced with reduced-serum medium (BI, 01-052-1ACS). Then, cells were treated with various concentrations of compounds for 24 h. MTT reagent (D&B, Q108115) (0.5 mg/mL) was added to the wells and the plates were incubated for 4 h at 37 °C. Supernatants were carefully removed, and 150 μL of dimethylsulfoxide (DMSO) were added into each well. The absorbance was measured at 570 nm using the spectrophotometer (Thermo, multiskan FC, USA). Cells were treated in quadruplicate. The values are the mean ± SD of three independent experiments.

BChE = target: T3, BChE (Homo sapiens, UniProt P06276); test: Enzyme kinetic study with BChE (substrate BTC); assay type: biochemical; conditions: for Apparent Vmax: mean ± SD; for Kiu (inhibition constant for the uncompetitive part of inhibition) / Ki: mean ± SEM of three experiments; for Ki: read-out: Kic (inhibition constant for the competitive part of inhibition); for Mode of inhibition: substrate 90–904 μM, inhibitor 0.5–2 μM
T3 construct: BChE (from human serum, B4186); purchased Sigma-Aldrich B4186; host or cells: human serum
Method: Kinetic studies were performed in the same manner as the determination of ChE inhibition as previously described. The substrate (BTC) was used at various concentrations (90, 150, 226, 452, and 904 μM) for each test compound concentration and the enzymatic reaction was extended to four minutes before determining the absorption. The Vmax and Km values of the Michaelis–Menten kinetics were calculated by nonlinear regression from substrate–velocity curves using Graphpad Prism 6 (GraphPad Software, San Diego, CA, USA) (Table S1). […]

T2 sequence (P22303 other isoform, or with tags, fused parts or gaps): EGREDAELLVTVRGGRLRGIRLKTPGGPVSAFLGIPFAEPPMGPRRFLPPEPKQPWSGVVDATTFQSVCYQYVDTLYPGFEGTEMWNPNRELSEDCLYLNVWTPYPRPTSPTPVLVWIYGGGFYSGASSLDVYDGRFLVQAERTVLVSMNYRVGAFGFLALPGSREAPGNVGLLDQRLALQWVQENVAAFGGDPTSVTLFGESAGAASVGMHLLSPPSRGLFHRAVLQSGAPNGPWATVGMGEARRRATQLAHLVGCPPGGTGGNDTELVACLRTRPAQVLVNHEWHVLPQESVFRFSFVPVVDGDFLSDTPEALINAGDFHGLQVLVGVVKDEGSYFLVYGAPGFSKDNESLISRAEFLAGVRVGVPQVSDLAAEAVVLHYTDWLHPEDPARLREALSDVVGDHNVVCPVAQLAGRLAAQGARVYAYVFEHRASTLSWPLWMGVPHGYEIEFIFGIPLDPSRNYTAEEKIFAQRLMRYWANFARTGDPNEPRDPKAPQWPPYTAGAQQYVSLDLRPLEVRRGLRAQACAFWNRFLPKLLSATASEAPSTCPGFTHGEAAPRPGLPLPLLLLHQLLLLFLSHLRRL
T1 sequence (P06276 29-602): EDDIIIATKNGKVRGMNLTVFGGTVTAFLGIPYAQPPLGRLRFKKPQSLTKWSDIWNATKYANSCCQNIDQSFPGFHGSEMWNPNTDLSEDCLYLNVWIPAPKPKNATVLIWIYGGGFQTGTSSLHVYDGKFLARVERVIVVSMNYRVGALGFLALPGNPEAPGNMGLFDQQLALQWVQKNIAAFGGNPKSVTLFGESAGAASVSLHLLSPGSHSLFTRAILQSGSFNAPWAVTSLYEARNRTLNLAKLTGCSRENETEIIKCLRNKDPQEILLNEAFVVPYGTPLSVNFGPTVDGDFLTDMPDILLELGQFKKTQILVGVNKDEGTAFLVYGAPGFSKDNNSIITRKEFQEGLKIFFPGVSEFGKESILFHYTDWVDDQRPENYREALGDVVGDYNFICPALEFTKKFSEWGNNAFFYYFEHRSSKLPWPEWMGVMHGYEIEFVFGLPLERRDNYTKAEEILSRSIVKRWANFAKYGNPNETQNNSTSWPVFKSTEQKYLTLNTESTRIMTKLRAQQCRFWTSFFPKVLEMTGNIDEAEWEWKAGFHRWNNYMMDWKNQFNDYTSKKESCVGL
T3 sequence (P06276 29-602): as above

In the case of `CC1=NC2C(SC(=S)N2Cc2ccco2)C(=O)N1CC(=O)NCCc1ccccc1` (centres unmarked) [Compound 12], the “BChE IR (inhibition ratio)” value (BChE (from human serum)) is reported as −1.8 ± 1.1% and the “AChE IR (inhibition ratio)” value [1] is reported as 1.1 ± 1.0%.

With `Cc1nc(-c2cccc(F)c2)n(CCC(=O)NCCCc2ccccc2)c(=O)c1CCO` [Compound 6] the “BChE IR (inhibition ratio)” value (BChE (from human serum)) was 8.5 ± 0.3% and the “AChE IR (inhibition ratio)” value [1] was −1.5 ± 0.5%.

With `Cc1cc(C)cc(N(CC(=O)N2CCN(Cc3ccccc3)CC2)S(=O)(=O)c2ccccc2)c1` [Compound 17] the “BChE IR (inhibition ratio)” value (BChE (from human serum)) was 11.8 ± 1.2% and the “AChE IR (inhibition ratio)” value [1] was 2.9 ± 0.5%.

With `O=C(O)C(c1c[nH]c2ccccc12)N1CCN(c2ccccn2)CC1` (centres unmarked) [Compound 15] the “BChE IR (inhibition ratio)” value (BChE (from human serum)) was −0.6 ± 0.5% and the “AChE IR (inhibition ratio)” value [1] was 0.6 ± 1.0%.

For `CN(C)CCN(CC1CCCN(C2Cc3ccccc3C2)C1)C(=O)c1ccc2ccccc2c1` (centres unmarked) [Compound 2], the IC50 (hAChE) is given as > 10000 nM.

In the case of `COC(=O)c1c(S(=O)(=O)Nc2ccc(C)cc2)sc2c1CCN(Cc1ccccc1O)C2` [Compound 19], the “BChE selective index (SI BChE, AChE IC50/BChE IC50)” value (BChE (from human serum)) is reported as 6, the IC50 (BChE (from human serum)) is reported as 2400 ± 1000 nM and the IC50 [1] is reported as 13800 ± 6000 nM.

With `COc1cccc(N(CC(=O)N2CCN(Cc3ccccc3)CC2)S(=O)(=O)c2ccccc2)c1` [Compound 13] the “BChE IR (inhibition ratio)” value (BChE (from human serum)) was 20.1 ± 1.2% and the “AChE IR (inhibition ratio)” value [1] was 11.3 ± 1.3%.

For `CCCCCCCNC(=O)Oc1ccc2c(c1)CN(C)C(c1cccs1)N2C` (centres unmarked) [Compound 4], the IC50 (hBChE) is listed as 13 nM.

With `COc1cccc(S(=O)(=O)NCC2CCCN(Cc3cc4ccccc4o3)C2)c1` (centres unmarked) [Compound 16] the “BChE IR (inhibition ratio)” value (BChE (from human serum)) was 26.4 ± 1.1% and the “AChE IR (inhibition ratio)” value [1] was 38.7 ± 1.7%.

With `Cc1ccc(S(=O)(=O)Nc2nc3ccccc3nc2NCc2ccc(F)cc2)cc1C` [Compound 5] the “BChE IR (inhibition ratio)” value (BChE (from human serum)) was 7.2 ± 0.6% and the “AChE IR (inhibition ratio)” value [1] was −0.31 ± 0.5%.

For `CCN(Cc1ccccc1)C(=O)CCc1nc2ccsc2c(=O)n1Cc1ccccc1` [Compound 14], the “BChE IR (inhibition ratio)” value (BChE (from human serum)) was 3.4 ± 0.4% and the “AChE IR (inhibition ratio)” value [1] was 10.9 ± 0.8%.

In the case of `O=C(NC1(C(F)(F)F)N=C(c2ccccc2)N(Cc2ccccc2)C1=O)c1ccco1` (centres unmarked) [Compound 11], the “BChE IR (inhibition ratio)” value (BChE (from human serum)) is reported as 14.8 ± 1.3% and the “AChE IR (inhibition ratio)” value [1] is reported as −0.7 ± 0.7%.

For `O=C1NCCCc2c1c1ccccc1n2CCc1cccc(F)c1` [Compound 3], the IC50 (hBChE) is listed as 1.8 nM.

With `COc1ccccc1CN1CCCC(CN(CCN(C)C)C(=O)C(=O)c2ccccc2)C1` (centres unmarked) [Compound 8] the “Effect on cell viability (cytotoxicity)” value (SH-SY5Y cells) was “none of compounds was observed to affect cell viability”, the “Apparent Vmax” value (BChE; inhibitor 0.5 µM) was 0.34 ± 0.01 µM/min and the “Apparent Vmax” value (BChE; inhibitor 1 µM) was 0.27 ± 0.01 µM/min. The “Apparent Vmax” value (BChE; inhibitor 1.5 µM) was 0.25 ± 0.01 µM/min, the “Apparent Vmax” value (BChE; inhibitor 2 µM) was 0.24 ± 0.01 µM/min and the “Kiu (inhibition constant for the uncompetitive part of inhibition)” value (BChE) was 3.61 ± 0.24 µM. For the same compound, the Ki (BChE) was 880 ± 70 nM, the Mode of inhibition (BChE) was “mixed-type inhibitors” and the “BChE selective index (SI BChE, AChE IC50/BChE IC50)” value (BChE (from human serum)) was > 30. The IC50 (BChE (from human serum)) was 1100 ± 600 nM.

For `Cc1noc(C)c1CN(C)Cc1ccn(S(=O)(=O)c2ccccc2)c1` [Compound 7], the “BChE IR (inhibition ratio)” value (BChE (from human serum)) was 16.3 ± 1.1% and the “AChE IR (inhibition ratio)” value [1] was 0.6 ± 0.6%.

For `COCCN1C(=O)N(CCc2ccccc2)C(=O)C12CCN(Cc1ccccc1)CC2` [Compound 9], the “BChE IR (inhibition ratio)” value (BChE (from human serum)) was 15.5 ± 1.6% and the “AChE IR (inhibition ratio)” value [1] was 16.0 ± 1.5%.

With `COc1ccc(CCN2CCCC(O)(CNCc3cc(C)ccc3C)C2=O)cc1` (centres unmarked) [Compound 18] the “Effect on cell viability (cytotoxicity)” value (SH-SY5Y cells) was “none of compounds was observed to affect cell viability”, the “Apparent Vmax” value (BChE; inhibitor 0.5 µM) was 0.49 ± 0.01 µM/min and the “Apparent Vmax” value (BChE; inhibitor 1 µM) was 0.42 ± 0.02 µM/min. For the same compound, the “Apparent Vmax” value (BChE; inhibitor 1.5 µM) was 0.39 ± 0.01 µM/min, the “Apparent Vmax” value (BChE; inhibitor 2 µM) was 0.28 ± 0.02 µM/min and the “Kiu (inhibition constant for the uncompetitive part of inhibition)” value (BChE) was 2.31 ± 0.32 µM. For the same compound, the Ki (BChE) was 930 ± 130 nM, the Mode of inhibition (BChE) was “mixed-type inhibitors” and the “BChE selective index (SI BChE, AChE IC50/BChE IC50)” value (BChE (from human serum)) was > 30. For the same compound, the “BChE IR (inhibition ratio)” value (BChE (from human serum)) was 58.4% and 58.4 ± 0.9%, the IC50 (BChE (from human serum)) was 6300 ± 2000 nM and the “AChE IR (inhibition ratio)” value [1] was 11.1% and 11.1 ± 1.5%.

For `O=C(CC1NC(N2CCN(Cc3ccccc3)CC2)=NC1=O)Nc1ccccc1` (centres unmarked) [Compound 10], the “BChE IR (inhibition ratio)” value (BChE (from human serum)) was 9.9 ± 1.0% and the “AChE IR (inhibition ratio)” value [1] was 7.8 ± 0.7%.

For `COCCN(CC1CCCN(Cc2ccccc2)C1)S(=O)(=O)c1ccc2ccccc2c1` (centres unmarked) [Compound 1, N-((1-benzylpiperidin-3-yl)methyl)-N-(2-methoxyethyl)naphthalene-2-sulfonamide], the IC50 (hAChE) is listed as > 10000 nM.
